Laboratory results taken from publication PMC11434613, “The Remarkable and Selective In Vitro Cytotoxicity of Synthesized Bola-Amphiphilic Nanovesicles on Etoposide-Sensitive and -Resistant Neuroblastoma Cells” (Nanomaterials, 2024).
Several values for one entry are separate records, joined by “and”; a condition that tells them apart may be missing. Identical values can stand only once.

What was measured:
[1] = system: Human MRC-5 lung fibroblast cells; assay: Presto Blue viability test on MRC-5 lung fibroblasts; assay type: cell-based; settings: for IC50: concentration range 0.5–5 µM
Method: (§1) Human MRC-5 lung fibroblast cells were used (ICLC-IRCCS San Martino, Genoa, Italy); cells were expanded in DMEM/F12 50%/50% (Dulbecco’s Modified Eagle Medium/Ham’s F12 50/50 Mix; Corning, Pisa, Italy; cat. n. 10-090-CV; ThermoFisher Scientific, Segrate (MI), Italy, supplemented with 10% fetal bovine serum (GIBCO-Invitrogen, GIBCO-ThermoFisher Life Science, Segrate, Italy, catalog number (cat. n.) 10270-098) and 2 mM glutamine (Euro-Clone; Pero, MI, Italy; cat. n. EC B3000D) at 37 °C under 5% CO2 aeration. After expansion, cells were washed three times with sterile phosphate buffered solution (PBS; VWR, Milano, Italy, cat. n. 392-0442), detached with 0.25% Trypsin solution (Corning; cat-25-050-CI), collected in complete medium, and centrifuged at 400× g for 12 min. The supernatant was discarded, and cells were suspended in PBS, counted, and centrifuged again as mentioned above. Cells were then resuspended in complete medium, seeded into 24-well plates (20,000 cells/well) and allowed to adhere to the plate for the next 24 h. Subsequently, non-adherent cells and the plating medium were discarded, and fresh standard medium or treatment medium were added. Treatment media contained BPPB at different concentrations (0.5, 1.0, 5.0, 25.0, 50.0, 75.0 and 100.0 μM); triplicate wells for each concentration were tested simultaneously, as well as controls. The medium was changed every day. Cells were photographed and assayed for viability prior to treatment (time 0; T0) and after 24, 48, and 72 h subsequently (T24, T48 and T72). Bright field images of each well/treatment were acquired using a Nikon Digital Sigh DS-5Mc camera (Nikon Europe B.V., Amstelveen, The Netherlands) mounted on an inverted Olympus CKX-41 microscope (Evident Europe GmbH, Segrate (Milan), Italy) (4×, 10× and 20× enlargements).
(§2) Briefly, at the indicated time points, cells were washed twice with PBS and incubated in the dark a 37 °C for 4 h with fresh complete medium supplemented with 10% Presto Blue ^TM. Aliquots of the Presto Blue ^TM-containing medium were incubated in the same conditions, to be used as reaction blanks. Supernatants and blanks were then collected and analyzed using a Spectra MR multi-plate reader spectrophotometer (Dynex Technologies; Chantilly, VA, USA) at 570 and 600 nm. The results were calculated as the average of treatment replicas (triplicates) ± S.D., normalizing each 570 nm reading to its corresponding value at 600 nm, subtracting the average blank value, and normalizing the results at each time point to the initial reading at T0.

[2] = as above; assay type: cell-based, human; settings: human
Method: as §1, §2

Cos-7 cells = system: Cos-7 cells; set-up: method as in earlier work; settings: MTT test; Table S1, previously assessed characteristics; cited from earlier work
HTLA-ER cells = assay: Cell viability assay (CellTiter 96 AQueous One Solution) on etoposide-resistant HTLA-ER NB cells; assay type: cell-based, human
Text: HTLA-230 human stage-IV NB cells were kindly provided by Dr. L. Raffaghello (G. Gaslini Institute, Genoa, Italy). The HTLA-ER cells were selected by treating HTLA-230 parental cells for six months with increasing concentrations of etoposide, as previously reported. Both cell populations were maintained in RPMI 1640 medium (Euroclone Spa, Pavia, Italy) supplemented with 10% fetal bovine serum (FBS, Euroclone Spa, Pavia, Italy), 1% L-glutamine (Euroclone Spa, Pavia, Italy), and 1% Penicillin/Streptomicin (Euroclone Spa, Pavia, Italy) and grown in standard conditions (37 °C humidified incubator with 5% CO2).
To determine the cytotoxic effects of BPPB, in vitro time- and dose-dependent experiments were carried out. Cells were first treated for 24, 48, and 72 h, with increasing concentrations (0.5–50 µM) of the compound. In a subsequent series of the experiments, cells were treated for 24, 48, and 72 h with increasing concentration of BPPB in the range of 0.1–2 µM. […] Cell cultures were carefully monitored before and during the experiments to ensure optimal cell density.
Cell viability was determined by using the CellTiter 96® AQueous One Solution Cell Proliferation Assay (Promega, Madison, WI, USA), as previously described. Briefly, cells (10,000 cells/well) were seeded into 96-well plates (Corning Incorporated, Corning, NY, USA) and then treated. Next, cells were incubated with 20 µL of CellTiter, and the absorbance at 490 nm was recorded using a microplate reader (EL-808, BIO-TEK Instruments Inc., Winooski, VT, USA). IC50 was evaluated by GraphPad Prism 5.4.2 Software (GraphPad Software, Boston, MA, USA).
Results are expressed as the means ± S.D. of at least four independent experiments in which six different wells were analyzed every time for each experimental condition. The statistical significance of differences was determined by two-way analysis of variances (ANOVA) followed by Tukey’s multicomparison test using GraphPad Prism 8.0 (GraphPad Software v8.0, San Diego, CA, USA); p < 0.05 was considered statistically significant. Asterisks or other indicators (see Figures captions) indicate the following p-value ranges: p > 0.05 no symbols, * = p < 0.05, ** = p < 0.01, *** = p < 0.001, **** = p < 0.0001.

c1ccc([P+](CCCCCCCCCCCC[P+](c2ccccc2)(c2ccccc2)c2ccccc2)(c2ccccc2)c2ccccc2)cc1 [BPPB, 1,1-(1,12-dodecanediyl)bis [1,1, 1]-triphenylphosphonium di-bromide]
Selectivity index (SI) = IC50 MRC-5 / IC50 HTLA-230 ([1]; 24 h): 11.68
Selectivity index (SI) = IC50 MRC-5 / IC50 HTLA-ER ([1]; 24 h): 2.49
IC50 ([1]; 24 h exposure): 2770 nM
Selectivity index (SI) = IC50 MRC-5 / IC50 HTLA-230 ([1]; 48 h): 3.77
Selectivity index (SI) = IC50 MRC-5 / IC50 HTLA-ER ([1]; 48 h): 0.80
Selectivity index (SI) = IC50 MRC-5 / IC50 HTLA-230 ([1]; 72 h): 4.01 and 4.07
Selectivity index (SI) = IC50 MRC-5 / IC50 HTLA-ER ([1]; 72 h): 1.11
Fold higher SI for HTLA-ER than that of ETO ([1]; BPPB SI vs MRC-5, 24 h (2.49) against ETO SI (0.32)): 7.8 fold
IC50 ([1]; Homo sapiens, MRC5, 24 h, 24 h exposure): 2800 nM
IC50 ([1]; Homo sapiens, MRC5, 48 h, 48 h exposure): 740 ± 572 nM
IC50 ([1]; Homo sapiens, MRC5, 72 h, 72 h exposure): 928 ± 896 nM
Effect on plated MRC-5 cells ([1]; any concentration equal to or higher than 25 µM, within 24 h): detachment and death of all plated cells
selectivity ratio at 24 h ([2]; 24 h, read-out: Selectivity index (SI) = IC50 MRC-5 / IC50 HTLA-ER): 2.5
selectivity ratio at 48 h ([2]; 48 h, read-out: Selectivity index (SI) = IC50 MRC-5 / IC50 HTLA-ER): ~1
selectivity ratio at 72 h ([2]; 72 h, read-out: Selectivity index (SI) = IC50 MRC-5 / IC50 HTLA-ER): ~1
viability at 48 h, 1 µM ([2]; MRC-5 lung fibroblast cells, 1.0 µM, 48 h, read-out: Percentage of viable MRC-5 cells with respect to seeded cells at T0): 26.8%
viability at 72 h, 1 µM ([2]; MRC-5 lung fibroblast cells, 1.0 µM, 72 h, read-out: Percentage of viable MRC-5 cells with respect to seeded cells at T0): 30.6%
viability at 5 µM ([2]; MRC-5 lung fibroblast cells, 5 µM, 48–72 h, read-out: Cell viability MRC-5): 3%
viability at 24 h, 5 µM ([2]; MRC-5 lung fibroblast cells, 5 µM, 24 h, read-out: Cell viability MRC-5): 38%
viability at 48 h, 5 µM ([2]; MRC-5 lung fibroblast cells, 5.0 µM, 48 h, read-out: Percentage of viable MRC-5 cells with respect to seeded cells at T0): 2.78%
viability at 72 h, 5 µM ([2]; MRC-5 lung fibroblast cells, 5.0 µM, 72 h, read-out: Percentage of viable MRC-5 cells with respect to seeded cells at T0): 3.04%
IC50 COS-7 cell (Cos-7 cells): 5.76 ± 0.95 µg/mL
Cell viability HTLA-ER (HTLA-ER cells; 0.5 µM, 24 h, series 0.5–50 µM): not significantly different from that of controls
Fold lower IC50 on HTLA-ER than that of ETO (HTLA-ER cells; 24 h, ETO IC50 592 µM from ref 58): 538 fold
Cell viability HTLA-ER (HTLA-ER cells; 24 h, concentration at which hemolysis was inexistent (concentration not stated)): 14.3%
IC50 (HTLA-ER cells; 24 h exposure, refined concentration range 0.1–2 µM): 1110 nM
IC50 (HTLA-ER cells; 48 h exposure, refined concentration range 0.1–2 µM): 930 ± 95.6 nM
IC50 (HTLA-ER cells; 72 h exposure, refined concentration range 0.1–2 µM): 833 ± 68.5 nM
IC50 (HTLA-ER cells; Homo sapiens, 24 h, 24 h exposure, concentration range 0.5–50 µM): 1850 ± 392 nM
IC50 (HTLA-ER cells; Homo sapiens, 24 h, 24 h exposure, refined concentration range 0.1–2 µM): 1100 nM
IC50 (HTLA-ER cells; Homo sapiens, 48 h, 48 h exposure, concentration range 0.5–50 µM): 732 ± 159 nM
IC50 (HTLA-ER cells; Homo sapiens, 48 h, 48 h exposure, refined concentration range 0.1–2 µM): 900 nM
IC50 (HTLA-ER cells; Homo sapiens, 72 h, 72 h exposure, concentration range 0.5–50 µM): 892 ± 167 nM
IC50 (HTLA-ER cells; Homo sapiens, 72 h, 72 h exposure, refined concentration range 0.1–2 µM): 800 nM
IC50 (HTLA-ER cells; Homo sapiens, 72 h, over 24, 48, 72 h, range 0.1–2 µM): 800 to 1100 nM
viability at 0.5 µM (HTLA-ER cells; Homo sapiens, 0.5 µM, 48 h, series 0.5–50 µM): 54.1%
viability at 0.5 µM (HTLA-ER cells; Homo sapiens, 0.5 µM, 72 h, series 0.5–50 µM): 62%
Cell viability HTLA-ER (plateau) (HTLA-ER cells; concentrations above 5–10 µM up to 50 µM, all exposure times): 7–8%
